“Also recorded” adds a separate entry of the source.
How the values were obtained:
Format in all cases: in vivo, human
[1] = system: depressive episode in subjects with bipolar disorder I or II (HAM-D score); experiment: Double-blind clinical trial of cytidine add-on to divalproex; HAM-D scores in bipolar depression
Description: The new methods are based on a double-blind, long-term clinical trial designed to assess the impact of cytidine on patients with bipolar disorder who were undergoing a major depressive episode.
(§1) 65 subjects with either bipolar disorder I or II, as determined by the Structured Clinical Interview for DSM-IV-Patient Version (SCID), were studied during a depressive episode, as determined by a Hamilton Depression Rating Scale (HAM-D) score of 16 or greater. […] HAM-D scores for every subject were evaluated and recorded once a week for twelve weeks following baseline assessment.
The HAM-D scale is a 17-item scale used in the art to assess the severity of depression in patients already diagnosed with an affective disorder. Higher scores indicate more severe depression. Questions posed to subjects relate to symptoms such as depressed mood, guilty feelings, suicide, sleep disturbances, anxiety levels, and weight loss. Hamilton, (1960) J. Neurology and Neurosurgery in Psychiatry, 23:56-62.

[2] = system: treatment emergent mania (YMRS score); experiment: Treatment-emergent mania/hypomania by Young Mania Rating Scale (YMRS) in the clinical trial
Description: as §1
Tohen et al., (2003) Arch. Gen. Psychiatry, 60:1079-88.

[3] = system: Glu, Gln, GABA and Lac in frontal gray matter (anterior cingulate); experiment: Single voxel 1H MRS study of brain metabolites in frontal gray matter; details: for Gray Matter Glu Concentration, Mean / gray matter GABA concentration, Mean / gray matter Gln concentration, Mean / gray matter Lac concentration, Mean: cytidine group n = 19
Description: A companion imaging single voxel ^1H MRS study to the behavioral study described in Example 1 examined Glx and Lac changes in frontal gray matter. […] Brain MRS was performed using a 3.0 Tesla GE whole body imaging system (GE VH/i, USA). The localized MR spectra were recorded using a point-resolved spatially localized spectroscopy (PRESS) sequence on a General Electric 3T scanner, which was optimized for acquisition of ^1H MR spectra from the frontal lobe. Voxel size was 1.5×1.5×1.5 cm. The voxels were verified in scout views in T2 images obtained vertically in the Z-axis to include predominantly gray matter of the anterior cingulate for the frontal brain region. The acquisition parameters were: repetition time (TR), 2000 ms; echo time (TE), 35 ms; average=128, phase size-cycling=8, and acquisition time, 4 minutes 16 seconds.

[4] = over the 4 week period, p=0.032

## Nc1ccn([C@@H]2O[C@H](CO)[C@@H](O)[C@H]2O)c(=O)n1 [cytidine]
[1]; HAM-D, add-on to divalproex, twelve weeks
  affective improvement compared to placebo supplementation (FIG. 1): enhanced the affective improvement
[1]; cytidine vs placebo, both add-on to divalproex, week 2 through 12, oral cytidine 1 gram/day
  mean difference in HAM-D scores between groups: 2.66±0.65
[1]; oral cytidine added to divalproex, bipolar depression
  increase in antidepressant efficacy compared to divalproex alone: 10%
[2]; YMRS less than 12 at baseline and greater than 12 subsequently, cytidine plus divalproex
  subjects with treatment-emergent mania, modified criteria: no subjects; also recorded: one subject
[2]; YMRS less than 15 at baseline and 15 or greater anytime during the study, 12 weeks, cytidine plus divalproex
  subjects with treatment-emergent mania: No subject
[2]; cutoff of YMRS score of 9, 12-week trial period, vs six on placebo, p=0.041
  subjects with treatment-emergent hypomania: one subject
[2]; cutoff of YMRS score of 10, cytidine plus divalproex
  subjects with treatment emergent hypomania: one subject
[3]; Baseline
  Gray Matter Glu Concentration, Mean: 11.38 millimolar
  gray matter GABA concentration, Mean: 0.91 millimolar
  gray matter Gln concentration, Mean: 7.38 millimolar
  gray matter Lac concentration, Mean: 1.71 millimolar
[3]; Week 2
  Gray Matter Glu Concentration, Mean: 9.18 millimolar
  gray matter GABA concentration, Mean: 0.97 millimolar
  gray matter Gln concentration, Mean: 7.21 millimolar
  gray matter Lac concentration, Mean: 1.44 millimolar
[3]; Week 4
  Gray Matter Glu Concentration, Mean: 8.85 millimolar
  gray matter GABA concentration, Mean: 1.03 millimolar
  gray matter Gln concentration, Mean: 6.99 millimolar
  gray matter Lac concentration, Mean: 1.42 millimolar
[3]; over the 4-week period, p<0.01
  decrease in Glu levels: 22.2%
[3]; over the 4-week period, p=0.241
  decrease in Gln levels: 5.3%
[3]; [4]
  decrease in Lac levels: 17.0%
  increase in GABA levels: 13.2%

— US20090215714A1 (priority 2004, published 2009)
